Reference: US7745436B2, “Disalt inhibitors of IL-12 production” (Synta Pharmaceuticals Corporation, priority 2004, dated 2010)

How the values were obtained:
[1] = Solubility determination in water (vortex, sonication at ~50° C, HPLC of supernatant); type: physicochemical; conditions: for Solubility: water, vortexed and sonicated ~5-10 min at ~50° C, HPLC
Procedure: The disalts described herein can have a relatively high solubility, e.g., water solubility. As used herein, the “solubility” of a disalt in a solvent refers to the maximum mass of a disalt that can be dissolved per unit volume of the solvent under accelerated dissolution conditions (50-60° C. with concommitant ultrasonic agitation of the disalt/solvent test sample). Unless otherwise indicated, solubility data is expressed in terms of units of milligrams (mg)/milliliter (mL), e.g., mg/mL.
The compound was weighed, and water was added to it such that the ratio of the sample and water of the mixture would be 100 mg/mL. The mixture was then shaken using a Vortex-Genie2 shaker (vortexed) and sonicated (˜5-10 min at ˜50° C). If a clear solution has been obtained, more compound was added to the solution, and a mixture was vortexed and sonicated until a homogeneous suspension was achieved. The suspension was then centrifuged at 10,000 rpm for about 10 min. The supernatant was taken out and diluted with 50/50 (v/v) EtOH/water, then the sample was analyzed by HPLC to determine the concentration.
The HPLC system consisted of the HP 1100 Model (Agilent, Wilmington, Del.) equipped with a model 1100 quaternary pump, a model 1100 autosampler, a model 1100 Diode-Array Detector for UV detection at 320 nm. The HPLC analysis was performed using an isocratic mobile phase consisting of acetonitrile-water containing 10 mM NH4OAc . Mobile phases were degassed and filtered through a solvent filtration apparatus and pumped at a constant rate of 1.0 mL/min. The separation was made on an XTerra MS C18 analytical column, 4.6 mm i.d.×150 mm, (Waters Corp., Milford, Mass., USA) fitted with a precolumn filter (XTerra MS C18, 3.9 mm×20mm). The column was maintained at 30° C. Data acquisition and instrument setting were controlled using HP Chemstation software (ver.8.03).

[2] = Solubility in water at fixed concentrations (5 mg per 0.1, 0.2 or 0.25 mL); type: physicochemical

C(=NNc1cc(N2CCOCC2)nc(OCCc2ccccn2)n1)c1c[nH]c2ccccc12
melting point: 160 to 165 °C

CN(N=Cc1c[nH]c2ccccc12)c1cc(N2CCOCC2)nc(OCCc2ccccn2)n1
melting point: 130 to 140 °C

Cc1cccc(C=NNc2nc(OCCc3ccccn3)nc(N3CCOCC3)n2)c1
melting point: 143 to 147 °C

C(=NNc1nc(OCCc2ccccn2)nc(N2CCOCC2)n1)c1c[nH]c2ccccc12
melting point: 158 to 161 °C

CS(=O)(=O)O.Cc1cccc(C=NNc2cc(N3CCOCC3)nc(OCCc3ccccn3)n2)c1 [{[(1)(1H^+)]^1+•[1(CH3SO3^−)]^1−}, N-(3-Methyl-benzylidene)-N′-[6-morpholin-4-yl-2-(2-pyridin-2-yl-ethoxy)-pyrimidin-4-yl]-hydrazine 1 methanesulfonate (mesylate)]
Solubility [1]: 52.0 ± 0.1 mg/mL

Cc1cccc(C=NNc2cc(N3CCOCC3)nc(OCCc3ccccn3)n2)c1.Cl [{[(1)(2H^+)]^1+•[1(Cl^−)]^1−}, N-(3 -Methyl-benzylidene)-N′-[6-morpholin-4-yl-2-(2-pyridin-2-yl-ethoxy)-pyrimidin-4-yl]-hydrazine (1) hydrochloride]
Solubility [1]: 12.6 ± 0.4 mg/mL

CS(=O)(=O)O.CS(=O)(=O)O.Cc1cccc(C=NNc2cc(N3CCOCC3)nc(OCCc3ccccn3)n2)c1 [{[(1)(2H^+)]^2+•[2(CH3SO3^−)]^2−}, N-(3-Methyl-benzylidene)-N′-[6-morpholin-4-yl-2-(2-pyridin-2-yl-ethoxy)-pyrimidin-4-yl]-hydrazine (1) dimethanesulfonate (dimesylate)]
solubility of disalt relative to the solubility of the corresponding monosalt ([1]; versus monosalt {[(1)(1H^+)]^1+.[1(CH3SO3^−)]}): more than ten times greater | Solubility [1]: 831 ± 5 mg/mL

Cc1cccc(C=NNc2cc(N3CCOCC3)nc(OCCc3ccccn3)n2)c1.Cl.Cl [{[(1)(2H^+)]^2+•[2(Cl^−)]^2−}, N-(3-Methyl-benzylidene)-N′-[6-morpholin-4-yl-2-(2-pyridin-2-yl-ethoxy)-pyrimidin-4-yl]-hydrazine (1) dihydrogenchloride (dichloride)]
Solubility [1]: 213 ± 5 mg/mL | solubility in water at a concentration of 5 mg/0.1 mL [2]: soluble

Cc1cccc(C=NNc2cc(N3CCOCC3)nc(OCCc3ccccn3)n2)c1.O=[N+]([O-])O.O=[N+]([O-])O [{[(1)(2H^+)]^2+•[2(NO3^−)]^2−}, N-(3-Methyl-benzylidene)-N′-[6-morpholin-4-yl-2-(2-pyridin-2-yl-ethoxy)-pyrimidin-4-yl]-hydrazine (1) dinitrate]
Solubility [1]: 83.4 ± 0.2 mg/mL | solubility in water at a concentration of 5 mg/0.1 mL [2]: insoluble | solubility in water at a concentration of 5 mg/0.2 mL ([2]; 5 mg/0.2 mL): partially soluble | solubility in water at a concentration of 5 mg/0.25 mL ([2]; 5 mg/0.25 mL): partially soluble

C(=NNc1cc(N2CCOCC2)nc(OCCc2ccccn2)n1)c1c[nH]c2ccccc12.CS(=O)(=O)O.CS(=O)(=O)O [{[(2)(2H^+)]^2+•[2(CH3SO3^−)]^2−}, N-(1H-indol-3-ylmethylene)—N′-[6-morpholin-4-yl-2-(2-pyridin-2-yl-ethoxy)-pyrimidin-4-yl]-hydrazine (2) dimethanesulfonate (dimesylate)]
Solubility [1]: 454 ± 5 mg/mL

CN(N=Cc1c[nH]c2ccccc12)c1cc(N2CCOCC2)nc(OCCc2ccccn2)n1.CS(=O)(=O)O.CS(=O)(=O)O [{[(3)(2H^+)]^2+•[2(CH3SO3^−)]^2−}, N′-(1H-indol-3-ylmethylene)-N-methyl-N-[6-morpholin-4-yl-2-(2-pyridin-2-yl-ethoxy)-pyrimidin-4-yl]-hydrazine (3) dimesylate]
Solubility [1]: 306 ± 14 mg/mL
